The test system of test [1] is 3β-hydroxysterol synthesis. The experiment in a line: Test B. In Vivo Cholesterol Biosynthesis Inhibition Test. The conditions noted are these: Rattus norvegicus, po; rats, orally administered, 0.01-200 mg/kg body weight; read-out: ED50, dose producing a 50% inhibition of 3β-hydroxysterol synthesis.
Description: Test B. In Vivo Cholesterol Biosynthesis Inhibition Test:
In this test the rats are orally administered the test substance (compound of Formula I) at dose of 0.01-200 mg/kg. body weight. The obtained ED50 is the dose of the test substance observed or calculated to produce a 50% inhibition of 3β-hydroxysterol synthesis.
Test [2] addresses T1, HMG-CoA reductase (Rattus norvegicus, UniProt P51639).
T1 construct: from tissue; host or cells: microsomes (printed); rat liver, Sprague-Dawley, by own knowledge of the cited method
T1 sequence (P51639 1-887): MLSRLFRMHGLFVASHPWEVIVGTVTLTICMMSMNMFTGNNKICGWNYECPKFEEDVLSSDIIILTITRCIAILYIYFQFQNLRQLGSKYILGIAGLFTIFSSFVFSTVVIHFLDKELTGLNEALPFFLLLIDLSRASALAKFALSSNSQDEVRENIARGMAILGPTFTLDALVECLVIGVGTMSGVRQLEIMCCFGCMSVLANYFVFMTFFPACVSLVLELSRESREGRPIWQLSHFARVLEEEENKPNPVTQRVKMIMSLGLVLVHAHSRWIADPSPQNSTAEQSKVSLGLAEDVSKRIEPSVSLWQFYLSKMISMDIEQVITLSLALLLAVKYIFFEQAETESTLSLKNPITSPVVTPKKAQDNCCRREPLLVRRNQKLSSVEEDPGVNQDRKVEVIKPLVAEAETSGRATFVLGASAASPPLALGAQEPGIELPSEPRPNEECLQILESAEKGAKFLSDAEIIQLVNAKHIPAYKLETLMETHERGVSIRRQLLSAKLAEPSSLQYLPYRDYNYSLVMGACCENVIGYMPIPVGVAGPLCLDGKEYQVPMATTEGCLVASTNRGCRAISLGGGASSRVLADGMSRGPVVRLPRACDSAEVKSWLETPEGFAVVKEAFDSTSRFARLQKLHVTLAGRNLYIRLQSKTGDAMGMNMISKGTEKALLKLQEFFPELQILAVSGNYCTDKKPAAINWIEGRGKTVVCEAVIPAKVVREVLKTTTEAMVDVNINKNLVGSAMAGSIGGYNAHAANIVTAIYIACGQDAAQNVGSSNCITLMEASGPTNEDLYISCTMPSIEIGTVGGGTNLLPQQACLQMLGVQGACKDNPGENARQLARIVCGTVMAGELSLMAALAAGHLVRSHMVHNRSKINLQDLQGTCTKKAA
Kind of test: Test A. In Vitro Microsomal Assay of HMG-CoA Reductase Inhibition. The class given is biochemical. The conditions noted are these: test substance 0.0005-2,000 μmolar, read-out: IC50, concentration producing a 50% inhibition of HMG-CoA reductase activity. On the procedure: Test A. In Vitro Microsomal Assay of HMG-CoA Reductase Inhibition:
This test is carried out precisely as described in column 53 of U.S. Pat. No. 4,613,610 and on page 30 of World (PCT) Published Patent Application No. 84/02131, both of which are hereby incorporated by reference as if set forth herein in their entirety. The concentration of the test substance (compound of Formula I) in the assay system is 0.0005-2,000 μmolar. The obtained IC50 is the concentration of the test substance in the assay system observed or calculated to produce a 50% inhibition of HMG-CoA reductase activity.

Where a name gives a salt, the structure may show the parent alone.

One may read the ED50 as the dose at which the effect has come halfway, by size or by number of responders.

On to `CC[C@H](C)C(=O)O[C@H]1CCC=C2C=C[C@H](C)[C@H](CC[C@@H]3C[C@@H](O)CC(=O)O3)[C@H]21` [Compactin, reference compound], for which, in test [1], the median effective dose (ED50) is 3.5 mg/kg.

For the compound `CC(C)c1oc(-c2ccccc2)c(-c2ccc(F)cc2)c1/C=C/C(O)CC(O)CC(=O)O` (centres unmarked) [Example 5b], in test [2], the IC50 is 190 nM. For the same compound, the median effective dose (ED50) in test [1] is 0.35 mg/kg.

With `CC(C)c1sc(-c2ccccc2)c(-c2ccccc2)c1/C=C/C(O)CC(O)CC(=O)O` (centres unmarked) [Example 5c, sodium(E)-7-(4-phenyl-2-isopropyl-5-phenylthien-3-yl)-3,5-dihydroxy-hept-6-enoate], the IC50 in test [2] was 28 nM. In addition, the ED50 in test [1] amounted to 0.169 mg/kg.

As to `CC(C)c1sc(C(C)C)c(-c2ccc(F)cc2)c1/C=C/C(O)CC(O)CC(=O)O` (centres unmarked) [Example 8 (sodium salt)], the IC50 in test [2] came out at 27 nM. Further, the ED50 in test [1] was 0.076 mg/kg.

On to `CC[C@H](C)C(=O)O[C@H]1C[C@@H](C)C=C2C=C[C@H](C)[C@H](CC[C@@H]3C[C@@H](O)CC(=O)O3)[C@H]21` [Mevinolin, reference compound], for which the ED50 in test [1] is 0.41 mg/kg.
